# Assay results from ChEMBL document CHEMBL5346941, “Design, synthesis and evaluation of novel monoamine oxidase B (MAO-B) inhibitors with improved pharmacokinetic properties for Parkinson's disease” (Eur J Med Chem, 2023).
# What was measured:
# [1] = target: T1, Amine oxidase [flavin-containing] B (Homo sapiens, UniProt P27338); test: Inhibition of recombinant human MAO-B expressed in Sf9 cells using p-tyramine as substrate preincubated for 15 mins followed by substrate addition and measured after 60 mins by luciferin based luminescence analysis
# T1 sequence (P27338 whole entry): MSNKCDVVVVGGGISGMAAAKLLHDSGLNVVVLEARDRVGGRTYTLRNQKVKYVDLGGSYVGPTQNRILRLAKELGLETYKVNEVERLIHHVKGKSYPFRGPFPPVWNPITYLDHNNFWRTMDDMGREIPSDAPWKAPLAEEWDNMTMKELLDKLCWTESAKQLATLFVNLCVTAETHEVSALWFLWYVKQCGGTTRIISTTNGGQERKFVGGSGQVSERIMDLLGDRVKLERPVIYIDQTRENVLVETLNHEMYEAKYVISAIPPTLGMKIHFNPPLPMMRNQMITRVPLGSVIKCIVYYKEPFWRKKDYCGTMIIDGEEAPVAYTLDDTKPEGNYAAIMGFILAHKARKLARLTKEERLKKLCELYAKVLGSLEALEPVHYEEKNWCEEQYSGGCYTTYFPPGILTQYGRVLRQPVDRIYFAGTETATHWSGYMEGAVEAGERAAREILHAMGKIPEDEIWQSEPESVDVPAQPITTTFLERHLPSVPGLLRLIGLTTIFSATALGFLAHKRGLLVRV
# [2] = Cmax in fasted Sprague-Dawley rat at 5 mg/kg, IG measured for 24 hrs; format: ADME, organism-based; parameters: dose 5 mg/kg, time 24 hrs, route ig; conditions: in vivo, po
# [3] = target: T2, Amine oxidase [flavin-containing] A (Homo sapiens, UniProt P21397); test: Inhibition of recombinant human MAO-A expressed in Sf9 cells using […] as substrate preincubated for 15 mins followed by substrate addition and measured after 60 mins by luciferin based luminescence analysis
# T2 sequence (P21397 whole entry): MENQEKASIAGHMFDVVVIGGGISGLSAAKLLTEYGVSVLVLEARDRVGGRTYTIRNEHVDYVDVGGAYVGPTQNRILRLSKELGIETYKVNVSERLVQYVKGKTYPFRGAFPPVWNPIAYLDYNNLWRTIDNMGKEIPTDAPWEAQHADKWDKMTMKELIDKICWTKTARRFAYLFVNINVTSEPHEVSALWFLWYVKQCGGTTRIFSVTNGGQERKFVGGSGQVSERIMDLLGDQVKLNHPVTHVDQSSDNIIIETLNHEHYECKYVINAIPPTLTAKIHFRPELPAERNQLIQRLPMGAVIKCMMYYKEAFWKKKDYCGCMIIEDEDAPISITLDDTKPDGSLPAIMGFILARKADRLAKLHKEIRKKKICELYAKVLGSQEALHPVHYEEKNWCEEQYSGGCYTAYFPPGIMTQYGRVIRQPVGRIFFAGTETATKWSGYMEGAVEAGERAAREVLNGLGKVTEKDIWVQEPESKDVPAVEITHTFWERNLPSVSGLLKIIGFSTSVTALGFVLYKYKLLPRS
# [4] = AUC (0 to t) in fasted Sprague-Dawley rat at 1 mg/kg, iv measured for 24 hrs; format: ADME, organism-based; parameters: dose 1 mg/kg, time 24 hrs, route iv; conditions: in vivo
# [5] = AUC (0 to t) in fasted Sprague-Dawley rat at 5 mg/kg, IG measured for 24 hrs; format: ADME, organism-based; parameters: dose 5 mg/kg, time 24 hrs, route ig; conditions: in vivo, po
# [6] = Elimination half life in fasted Sprague-Dawley rat at 5 mg/kg, IG measured for 24 hrs; format: ADME, organism-based; conditions: in vivo, po, read-out: beta t1/2 (converted)
# [7] = Volume of distribution at steady state in fasted Sprague-Dawley rat at 1 mg/kg, iv measured for 24 hrs; format: ADME, organism-based; conditions: in vivo, read-out: Vdss
# [8] = Clearance in fasted Sprague-Dawley rat at 1 mg/kg, iv measured for 24 hrs; format: ADME, organism-based; conditions: in vivo
# [9] = Cmax in fasted Sprague-Dawley rat at 1 mg/kg, iv measured for 24 hrs; format: ADME, organism-based; parameters: dose 1 mg/kg, time 24 hrs, route iv; conditions: in vivo
# [10] = Bioavailability in fasted Sprague-Dawley rat at 5 mg/kg, IG measured for 24 hrs; format: ADME, organism-based; conditions: in vivo, po
# [11] = Elimination half life in fasted Sprague-Dawley rat at 1 mg/kg, iv measured for 24 hrs; format: ADME, organism-based; conditions: in vivo, read-out: beta t1/2 (converted)
# [12] = Clearance in fasted ICR mouse at 2 mg/kg, iv measured for 24 hrs; format: ADME, organism-based; conditions: in vivo
# [13] = Ratio of drug concentration in Sprague-Dawley brain to plasma at 5 mg/kg, ip measured after 60 mins by LC-MS/MS analysis; format: ADME, organism-based; conditions: rat, read-out: BPR
# [14] = Drug concentration in Sprague-Dawley rat plasma at 5 mg/kg, ip measured after 120 mins by LC-MS/MS analysis; format: ADME, organism-based
# [15] = Volume of distribution at steady state in fasted ICR mouse at 2 mg/kg, iv measured for 24 hrs; format: ADME, organism-based; conditions: in vivo, read-out: Vdss
# [16] = Ratio of drug concentration in Sprague-Dawley brain to plasma at 5 mg/kg, ip measured after 15 mins by LC-MS/MS analysis; format: ADME, organism-based; conditions: rat, read-out: BPR
# [17] = Drug concentration in Sprague-Dawley rat brain at 5 mg/kg, ip measured after 15 mins by LC-MS/MS analysis; format: ADME, organism-based; conditions: read-out: Ct
# [18] = Metabolic stability in mouse liver microsomes assessed as intrinsic clearance at 1 uM incubated for 60 mins in presence of NADPH by LC-MS/MS analysis; format: ADME, Microsome; conditions: read-out: CLH
# [19] = Metabolic stability in dog liver microsomes assessed as half life at 1 uM incubated for 60 mins in presence of NADPH by LC-MS/MS analysis; format: ADME, Canis lupus familiaris, Microsome
# [20] = Elimination half life in fasted ICR mouse at 2 mg/kg, iv measured for 24 hrs; format: ADME, organism-based; conditions: in vivo, read-out: beta t1/2 (converted)
# [21] = Cmax in fasted ICR mouse at 2 mg/kg, iv measured for 24 hrs; format: ADME, organism-based; parameters: time 24 hrs, dose 2 mg/kg, route iv; conditions: in vivo
# [22] = Ratio of drug concentration in Sprague-Dawley brain to plasma at 5 mg/kg, ip measured after 120 mins by LC-MS/MS analysis; format: ADME, organism-based; conditions: rat, read-out: BPR
# [23] = Drug concentration in Sprague-Dawley rat plasma at 5 mg/kg, ip measured after 60 mins by LC-MS/MS analysis; format: ADME, organism-based
# [24] = Drug concentration in Sprague-Dawley rat brain at 5 mg/kg, ip measured after 120 mins by LC-MS/MS analysis; format: ADME, organism-based; conditions: read-out: Ct
# [25] = Metabolic stability in human liver microsomes assessed as intrinsic clearance at 1 uM incubated for 60 mins in presence of NADPH by LC-MS/MS analysis; format: ADME, Microsome; conditions: read-out: CLH
# [26] = Metabolic stability in dog liver microsomes assessed as intrinsic clearance at 1 uM incubated for 60 mins in presence of NADPH by LC-MS/MS analysis; format: ADME, Canis lupus familiaris, Microsome; conditions: read-out: CLH
# [27] = Metabolic stability in rat liver microsomes assessed as half life at 1 uM incubated for 60 mins in presence of NADPH by LC-MS/MS analysis; format: ADME, Microsome
# [28] = Cmax in fasted ICR mouse at 5 mg/kg, IG measured for 24 hrs; format: ADME, organism-based; parameters: dose 5 mg/kg, time 24 hrs, route ig; conditions: in vivo, po
# [29] = Metabolic stability in human liver microsomes assessed as half life at 1 uM incubated for 60 mins in presence of NADPH by LC-MS/MS analysis; format: ADME, Microsome
# [30] = AUC (0 to t) in fasted ICR mouse at 5 mg/kg, IG measured for 24 hrs; format: ADME, organism-based; parameters: dose 5 mg/kg, time 24 hrs, route ig; conditions: in vivo, po
# [31] = Elimination half life in fasted ICR mouse at 5 mg/kg, IG measured for 24 hrs; format: ADME, organism-based; conditions: in vivo, po, read-out: beta t1/2 (converted)
# [32] = AUC (0 to t) in fasted ICR mouse at 2 mg/kg, iv measured for 24 hrs; format: ADME, organism-based; parameters: dose 2 mg/kg, time 24 hrs, route iv; conditions: in vivo
# [33] = Metabolic stability in mouse liver microsomes assessed as half life at 1 uM incubated for 60 mins in presence of NADPH by LC-MS/MS analysis; format: ADME, Microsome
# [34] = Bioavailability in fasted ICR mouse at 5 mg/kg, IG measured for 24 hrs; format: ADME, organism-based; conditions: in vivo, po
# [35] = Metabolic stability in rat liver microsomes assessed as intrinsic clearance at 1 uM incubated for 60 mins in presence of NADPH by LC-MS/MS analysis; format: ADME, Microsome; conditions: read-out: CLH
# [36] = Drug concentration in Sprague-Dawley rat brain at 5 mg/kg, ip measured after 60 mins by LC-MS/MS analysis; format: ADME, organism-based; conditions: read-out: Ct
# [37] = Drug concentration in Sprague-Dawley rat plasma at 5 mg/kg, ip measured after 15 mins by LC-MS/MS analysis; format: ADME, organism-based
structure (smiles),measurement,setting,value
NC(=O)[C@@H]1CCN1Cc1ccc2oc(-c3cccc(F)c3)cc2c1,IC50,[1],0.086 µM
same,Cmax,[2],185 ng/mL
same,IC50,[3],4.91 µM
same,AUC(0-t) at 24 h,[4],188 ng·h/mL
same,AUC(0-t) at 24 h,[5],527 ng·h/mL
same,half-life,[6],1.06 h
same,Vd,[7],4.96 L/kg
same,clearance,[8],87.9 mL/min/kg
same,Cmax,"[9]; Sprague-Dawley, read-out: Cmax",204 ng/mL
same,bioavailability,[10],56.3%
same,half-life,[11],0.783 h
NC(=O)[C@@H]1CC(F)(F)CN1Cc1ccc2oc(-c3ccc(F)cc3)cc2c1,IC50,[1],0.833 µM
same,IC50,[3],> 10 µM
C[C@H](NCc1ccc(OCc2cccc(F)c2)cc1)C(N)=O [SAFINAMIDE],clearance,[12],34.7 mL/min/kg
same,Cmax,[2],148 ng/mL
same,AUC(0-t) at 24 h,[4],233 ng·h/mL
same,AUC(0-t) at 24 h,[5],536 ng·h/mL
same,half-life,[6],2.62 h
same,Kp at 1 h,[13],14.4
same,concentration at 2 h,[14],144 ng/mL
same,Vd,[15],4.53 L/kg
same,Kp at 0.25 h,[16],10.7
same,Vd,[7],5.26 L/kg
same,concentration at 0.25 h,[17],3960 ng/g
same,CLint scaled at 1 µM,[18],43.2 mL/min/kg
same,half-life at 1 µM,[19],1.1 h
same,half-life,[20],1.59 h
same,Cmax,[21],429 ng/mL
same,Kp at 2 h,[22],15.1
same,concentration at 1 h,[23],353 ng/mL
same,concentration at 2 h,[24],2170 ng/g
same,clearance,[8],70.6 mL/min/kg
same,CLint scaled at 1 µM,[25],2.8 mL/min/kg
same,CLint scaled at 1 µM,[26],43.2 mL/min/kg
same,half-life at 1 µM,[27],0.331 h
same,Cmax,[28],755 ng/mL
same,half-life at 1 µM,[29],8.94 h
same,AUC(0-t) at 24 h,[30],3050 ng·h/mL
same,half-life,[31],2.78 h
same,AUC(0-t) at 24 h,[32],930 ng·h/mL
same,Cmax,"[9]; Sprague-Dawley, read-out: Cmax",244 ng/mL
same,half-life at 1 µM,[33],1.1 h
same,bioavailability,[34],129%
same,CLint scaled at 1 µM,[35],38.3 mL/min/kg
same,concentration at 1 h,[36],5100 ng/g
same,concentration at 0.25 h,[37],371 ng/mL
same,bioavailability,[10],48.5%
same,half-life,[11],1.18 h
C[C@H](NCc1ccc2oc(-c3cccc(F)c3)cc2c1)C(N)=O,IC50,[1],2.25 µM
same,IC50,[3],4.94 µM
COc1cccc(-c2cc3cc(CN[C@@H](C)C(N)=O)ccc3o2)c1,IC50,[1],4.55 µM
same,IC50,[3],5.91 µM
NC(=O)[C@@H]1CCN1Cc1ccc2oc(-c3ccccc3F)cc2c1,IC50,[1],0.073 µM
same,Cmax,[2],167 ng/mL
same,IC50,[3],> 10 µM
same,AUC(0-t) at 24 h,[4],155 ng·h/mL
same,AUC(0-t) at 24 h,[5],672 ng·h/mL
same,half-life,[6],1.15 h
same,Vd,[7],2.39 L/kg
same,clearance,[8],106 mL/min/kg
same,Cmax,"[9]; Sprague-Dawley, read-out: Cmax",360 ng/mL
same,bioavailability,[10],86.7%
same,half-life,[11],0.374 h
NC(=O)[C@@H]1C[C@H](F)CN1Cc1ccc(OCc2cccc(F)c2)cc1,clearance,[12],63.3 mL/min/kg
same,Cmax,[2],690 ng/mL
same,Vd,[15],2.6 L/kg
same,half-life,[20],0.55 h
same,Cmax,[21],613 ng/mL
same,Cmax,[28],833 ng/mL
same,AUC(0-t) at 24 h,[30],1080 ng·h/mL
same,half-life,[31],0.78 h
same,AUC(0-t) at 24 h,[32],561 ng·h/mL
same,Cmax,[9]; 24 h,69.1 ng/mL
same,bioavailability,[34],77.4%
NC(=O)[C@@H]1CCN1Cc1ccc2oc(-c3ccc(F)cc3)cc2c1,IC50,[1],0.038 µM
same,Cmax,[2],161 ng/mL
same,IC50,[3],> 10 µM
same,AUC(0-t) at 24 h,[4],161 ng·h/mL
same,AUC(0-t) at 24 h,[5],623 ng·h/mL
same,half-life,[6],3.92 h
same,Vd,[7],8.53 L/kg
same,clearance,[8],102 mL/min/kg
same,Cmax,"[9]; Sprague-Dawley, read-out: Cmax",213 ng/mL
same,bioavailability,[10],80.9%
same,half-life,[11],0.482 h
